Among the data in patent US9492471B2, “Methods of treating a disease or disorder associated with Bruton'S Tyrosine Kinase” (Celgene Avilomics Research, Inc., priority 2013, dated 2016) are inhibition and remaining activity values, retold here.

What is called inhibition is the drop in the measured response relative to a control, in per cent.

What all share (test): HotSpot kinase profiling
What all share (format): biochemical

The target in one experiment is T1, ERK2/MAPK1 (Homo sapiens, UniProt P28482).
T1 construct: purchased Reaction Biology Corp
T1 sequence (P28482 whole entry): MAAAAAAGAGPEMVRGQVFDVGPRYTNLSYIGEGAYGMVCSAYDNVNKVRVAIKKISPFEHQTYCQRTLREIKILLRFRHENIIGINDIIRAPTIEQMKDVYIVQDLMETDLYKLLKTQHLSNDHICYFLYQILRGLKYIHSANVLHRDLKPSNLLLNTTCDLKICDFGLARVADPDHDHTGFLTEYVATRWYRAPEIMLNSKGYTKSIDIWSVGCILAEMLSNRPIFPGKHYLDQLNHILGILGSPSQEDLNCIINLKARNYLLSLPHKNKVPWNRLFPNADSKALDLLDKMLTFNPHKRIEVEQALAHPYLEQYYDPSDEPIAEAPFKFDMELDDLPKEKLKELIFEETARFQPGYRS
In short, it runs like this:
(§1)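 Radio-isotope P81 filtration format. Substrate + required cofactors in reaction buffer, kinase added, 2 h RT. Stop, wash with 0.1% phosphoric acid, detect. % inhibition vs DMSO; mean of duplicates where repeated.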

The next experiment has as its target T2, MELK (Homo sapiens, UniProt Q14680).
T2 construct: purchased Reaction Biology Corp
In short, it runs like this:
as §1

The next experiment concerns the target T3, EPHB2 (Homo sapiens, UniProt P29323).
T3 construct: purchased Reaction Biology Corp
T3 sequence (P29323 19-1055): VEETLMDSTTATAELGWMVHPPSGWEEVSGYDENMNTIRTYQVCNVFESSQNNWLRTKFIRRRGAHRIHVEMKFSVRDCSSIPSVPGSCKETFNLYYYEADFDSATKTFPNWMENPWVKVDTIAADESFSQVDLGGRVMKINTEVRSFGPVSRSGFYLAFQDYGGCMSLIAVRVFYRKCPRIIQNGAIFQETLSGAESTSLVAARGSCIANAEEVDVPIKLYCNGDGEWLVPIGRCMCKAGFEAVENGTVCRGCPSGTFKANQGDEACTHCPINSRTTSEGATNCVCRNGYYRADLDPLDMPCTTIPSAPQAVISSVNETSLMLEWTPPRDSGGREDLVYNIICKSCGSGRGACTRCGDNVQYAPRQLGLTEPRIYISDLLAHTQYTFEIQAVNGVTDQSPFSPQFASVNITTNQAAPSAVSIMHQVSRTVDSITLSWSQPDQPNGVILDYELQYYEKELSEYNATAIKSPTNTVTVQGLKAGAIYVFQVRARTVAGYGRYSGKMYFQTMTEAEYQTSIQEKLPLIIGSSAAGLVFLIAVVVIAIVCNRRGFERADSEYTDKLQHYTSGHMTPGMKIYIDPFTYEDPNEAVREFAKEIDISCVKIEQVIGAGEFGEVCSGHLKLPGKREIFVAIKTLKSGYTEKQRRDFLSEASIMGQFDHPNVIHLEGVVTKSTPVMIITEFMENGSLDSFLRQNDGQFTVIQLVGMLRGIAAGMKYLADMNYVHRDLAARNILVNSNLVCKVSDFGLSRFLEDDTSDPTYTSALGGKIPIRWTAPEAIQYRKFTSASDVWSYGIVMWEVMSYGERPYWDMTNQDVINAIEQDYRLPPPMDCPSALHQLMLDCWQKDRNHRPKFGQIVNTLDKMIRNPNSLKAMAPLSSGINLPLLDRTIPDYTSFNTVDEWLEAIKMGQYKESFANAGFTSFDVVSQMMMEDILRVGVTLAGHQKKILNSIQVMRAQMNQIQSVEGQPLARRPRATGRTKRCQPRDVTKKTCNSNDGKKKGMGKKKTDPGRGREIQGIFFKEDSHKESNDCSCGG
In short, it runs like this: as §1

A further experiment has as its target T4, NEK11 (Homo sapiens, UniProt Q8NG66).
T4 construct: purchased Reaction Biology Corp
T4 sequence (Q8NG66 1-645): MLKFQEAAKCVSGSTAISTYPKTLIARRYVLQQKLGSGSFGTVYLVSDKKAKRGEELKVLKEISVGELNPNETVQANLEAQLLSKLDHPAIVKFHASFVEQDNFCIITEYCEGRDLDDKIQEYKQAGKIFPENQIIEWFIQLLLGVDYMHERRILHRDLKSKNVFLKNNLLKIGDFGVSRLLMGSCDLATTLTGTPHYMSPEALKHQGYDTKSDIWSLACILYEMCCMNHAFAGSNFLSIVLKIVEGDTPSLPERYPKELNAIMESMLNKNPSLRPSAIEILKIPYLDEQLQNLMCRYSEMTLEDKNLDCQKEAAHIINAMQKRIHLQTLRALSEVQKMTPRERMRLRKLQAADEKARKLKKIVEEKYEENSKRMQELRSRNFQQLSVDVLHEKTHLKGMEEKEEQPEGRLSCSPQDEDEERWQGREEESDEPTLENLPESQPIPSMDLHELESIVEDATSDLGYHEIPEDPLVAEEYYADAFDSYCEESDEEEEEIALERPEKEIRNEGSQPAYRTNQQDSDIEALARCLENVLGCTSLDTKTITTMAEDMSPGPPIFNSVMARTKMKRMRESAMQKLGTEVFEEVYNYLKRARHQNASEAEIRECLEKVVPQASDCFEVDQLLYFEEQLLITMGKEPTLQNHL
The essentials:
as §1

Setting [1] is: read-out: % Enzyme Activity (relative to DMSO controls) Run 1.
[2] abbreviates: read-out: % Enzyme Activity (relative to DMSO controls) Run 2.

Molecules are shown by their SMILES. Like-named read-outs stand apart in the source and are kept apart here.

T2 sequence (Q14680 whole entry): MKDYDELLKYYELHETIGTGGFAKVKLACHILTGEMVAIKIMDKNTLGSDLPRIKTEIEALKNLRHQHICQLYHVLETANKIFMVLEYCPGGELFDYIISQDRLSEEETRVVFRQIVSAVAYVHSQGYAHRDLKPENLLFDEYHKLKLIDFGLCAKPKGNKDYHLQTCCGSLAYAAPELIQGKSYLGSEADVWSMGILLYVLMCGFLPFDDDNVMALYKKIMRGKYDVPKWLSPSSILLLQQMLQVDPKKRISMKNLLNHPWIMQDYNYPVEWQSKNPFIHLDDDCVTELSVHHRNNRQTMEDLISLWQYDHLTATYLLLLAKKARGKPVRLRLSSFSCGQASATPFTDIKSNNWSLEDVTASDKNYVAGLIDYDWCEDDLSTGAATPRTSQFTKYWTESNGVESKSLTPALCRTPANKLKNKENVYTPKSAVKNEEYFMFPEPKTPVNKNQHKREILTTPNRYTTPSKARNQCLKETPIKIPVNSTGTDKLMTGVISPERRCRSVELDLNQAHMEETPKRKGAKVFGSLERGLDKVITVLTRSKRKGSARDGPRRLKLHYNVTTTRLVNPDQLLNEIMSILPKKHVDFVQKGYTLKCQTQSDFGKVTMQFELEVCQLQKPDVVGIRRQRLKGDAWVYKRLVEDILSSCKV

For the molecule `C=CC(=O)Nc1cccc(Nc2nc(Nc3ccc(OCCOC)c(F)c3)ncc2F)c1` [Compound 2], the inhibition at 3 µM against ERK2/MAPK1 was -4.25%; on MELK it was -8.07%; at EPHB2, -5.45%; on NEK11, 7.32%. In addition, the remaining activity at 3 µM on ERK2/MAPK1 (setting [1]) is 106%; at ERK2/MAPK1 (setting [2]), 103%; on MELK (setting [1]), 109%; on MELK (setting [2]) it was 107%; at EPHB2 (setting [1]) it was 104%; on EPHB2 (setting [2]) it was 107%. Further, the remaining activity at 3 µM at NEK11 (setting [1]) came out at 92.5%; on NEK11 (setting [2]) it was 92.8%.
